Results as given in the supplement of paper PMC10307832.

Compound: CN(C)C(=N)NC(=N)N [Metformin] + CCNC(=O)c1noc(-c2cc(C(C)C)c(O)cc2O)c1-c1ccc(CN2CCOCC2)cc1 [Luminespib] (partner 0.01 µM)
Assay: relative viability (nuclei count vs DMSO), 5 days (fraction); higher = more cells survive
Details: first compound 10 µM
In short: (§1)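 Lung cancer cell lines were seeded in 1536-well plates and dosed by pin tool the next day, with either a single drug or a fixed anchor-drug dose combined with five library-drug doses (not always all listed) spaced in √10 steps. Five days later, one step fixed the cells and stained their nuclei (final 0.05% Triton X-100, 1% formaldehyde, 1 ug/ml Hoechst), and nuclei were counted on 4× images. Relative viability is the nuclei count in treated wells divided by the count in vehicle wells, and each value is the median of duplicate plates.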

| Cell Line | relative viability |
| --- | --- |
| A-427 | 1.21 |
| ABC-1 | 0.481 |
| BEN | 0.461 |
| CAL-12T | 0.253 |
| COR-L23 | 0.635 |
| COR-L 105 | 0.85 |
| ChaGo-K-1 | 0.599 |
| EKVX | 0.872 |
| EMC-BAC-2 | 1.23 |
| EPLC-272H | 0.398 |
| H3255 | 0.858 |
| HCC-44 | 1.19 |
| HOP-62 | 0.77 |
| LCLC-97TM1 | 0.75 |
| LCLC-103H | 0.934 |
| LK-2 | 0.203 |
| LOU-NH91 | 0.343 |
| LU99A | 0.223 |
| LXF-289 | 0.693 |
| NCI-H23 | 0.207 |
| NCI-H322M | 0.831 |
| NCI-H358 | 0.575 |
| NCI-H520 | 0.265 |
| NCI-H522 | 1.4 |
| NCI-H1563 | 0.588 |
| NCI-H1623 | 0.475 |
| NCI-H1792 | 0.599 |

Same assay, conditions: first compound 31.62 µM

| Cell Line | relative viability |
| --- | --- |
| 201T | 1.15 |
| A-427 | 0.972 |
| ABC-1 | 0.694 |
| BEN | 0.475 |
| CAL-12T | 0.775 |
| COR-L23 | 0.655 |
| COR-L 105 | 0.736 |
| ChaGo-K-1 | 0.751 |
| EKVX | 0.948 |
| EMC-BAC-2 | 1.24 |
| EPLC-272H | 0.335 |
| H3255 | 1.01 |
| HARA | 0.897 |
| HCC-15 | 0.235 |
| HCC-44 | 1.07 |
| HCC-827 | 0.843 |
| HOP-62 | 0.878 |

| Cell Line | relative viability |
| --- | --- |
| LC-2-ad | 0.858 |
| LCLC-97TM1 | 0.861 |
| LCLC-103H | 1.18 |
| LK-2 | 0.17 |
| LOU-NH91 | 0.404 |
| LU99A | 0.233 |
| LXF-289 | 0.683 |
| NCI-H23 | 0.244 |
| NCI-H322M | 0.884 |
| NCI-H358 | 0.677 |
| NCI-H441 | 0.241 |
| NCI-H520 | 0.224 |
| NCI-H522 | 1.27 |
| NCI-H1563 | 0.629 |
| NCI-H1623 | 0.429 |
| NCI-H1792 | 0.57 |

Same assay, conditions: first compound 100 µM

| Cell Line | relative viability |
| --- | --- |
| 201T | 1.1 |
| A-427 | 1.04 |
| ABC-1 | 0.883 |
| BEN | 0.833 |
| CAL-12T | 0.447 |
| COR-L23 | 0.593 |
| COR-L 105 | 0.749 |
| ChaGo-K-1 | 0.67 |
| EKVX | 0.809 |
| EMC-BAC-2 | 1.21 |
| EPLC-272H | 0.27 |
| H3255 | 0.88 |
| HARA | 0.895 |
| HCC-15 | 0.348 |
| HCC-44 | 1.03 |
| HCC-827 | 0.843 |
| HOP-62 | 0.849 |

| Cell Line | relative viability |
| --- | --- |
| LC-2-ad | 0.934 |
| LCLC-97TM1 | 0.922 |
| LCLC-103H | 1.06 |
| LK-2 | 0.196 |
| LOU-NH91 | 0.316 |
| LU99A | 0.238 |
| LXF-289 | 0.724 |
| NCI-H23 | 0.218 |
| NCI-H322M | 1.05 |
| NCI-H358 | 0.555 |
| NCI-H441 | 0.336 |
| NCI-H520 | 0.211 |
| NCI-H522 | 1.65 |
| NCI-H1563 | 0.577 |
| NCI-H1623 | 0.596 |
| NCI-H1792 | 0.789 |

Same assay, conditions: first compound 316.23 µM

| Cell Line | relative viability |
| --- | --- |
| 201T | 1.06 |
| A-427 | 0.952 |
| ABC-1 | 0.306 |
| BEN | 0.361 |
| CAL-12T | 0.699 |
| COR-L23 | 0.495 |
| COR-L 105 | 0.538 |
| ChaGo-K-1 | 0.634 |
| EMC-BAC-2 | 1.19 |
| EPLC-272H | 0.25 |
| H3255 | 0.657 |
| HARA | 0.775 |
| HCC-15 | 0.35 |
| HCC-44 | 0.926 |
| HCC-827 | 0.524 |
| HOP-62 | 0.85 |

| Cell Line | relative viability |
| --- | --- |
| LC-2-ad | 0.683 |
| LCLC-97TM1 | 0.7 |
| LCLC-103H | 0.961 |
| LK-2 | 0.2 |
| LOU-NH91 | 0.344 |
| LU99A | 0.269 |
| LXF-289 | 0.625 |
| NCI-H23 | 0.272 |
| NCI-H322M | 0.912 |
| NCI-H358 | 0.211 |
| NCI-H441 | 0.28 |
| NCI-H520 | 0.223 |
| NCI-H522 | 1.54 |
| NCI-H1563 | 0.407 |
| NCI-H1623 | 0.487 |
| NCI-H1792 | 0.418 |

Same assay, conditions: first compound 1000 µM

| Cell Line | relative viability |
| --- | --- |
| 201T | 1.03 |
| A-427 | 0.91 |
| ABC-1 | 0.371 |
| BEN | 0.705 |
| CAL-12T | 0.417 |
| COR-L23 | 0.302 |
| COR-L 105 | 0.795 |
| ChaGo-K-1 | 0.696 |
| EKVX | 0.836 |
| EMC-BAC-2 | 1.33 |
| EPLC-272H | 0.413 |
| H3255 | 0.867 |
| HARA | 0.776 |
| HCC-15 | 0.321 |
| HCC-44 | 0.748 |
| HCC-827 | 0.736 |
| HOP-62 | 0.796 |

| Cell Line | relative viability |
| --- | --- |
| LC-2-ad | 0.647 |
| LCLC-97TM1 | 0.76 |
| LCLC-103H | 1.04 |
| LK-2 | 0.191 |
| LOU-NH91 | 0.376 |
| LU99A | 0.252 |
| LXF-289 | 0.621 |
| NCI-H23 | 0.214 |
| NCI-H322M | 0.826 |
| NCI-H358 | 0.364 |
| NCI-H441 | 0.373 |
| NCI-H520 | 0.23 |
| NCI-H522 | 1.33 |
| NCI-H1563 | 0.584 |
| NCI-H1623 | 0.755 |
| NCI-H1792 | 0.485 |

Compound: N#CC1(c2ccc(NC(=O)c3cccnc3NCc3ccncc3)cc2)CCCC1 [Apatinib] + Cc1cc(Nc2cc(N3CCN(C)CC3)nc(Sc3ccc(NC(=O)C4CC4)cc3)n2)n[nH]1 [Tozasertib] (partner 0.1 µM)
Assay: as above
Details: first compound 0.08 µM
In short: as §1

| Cell Line | relative viability |
| --- | --- |
| 201T | 0.96 |
| A-427 | 0.178 |
| BEN | 0.551 |
| CAL-12T | 0.298 |
